One series concerns H1299. Description: MTS cell proliferation assay, H1299. In kind it is cell-based, human. As to conditions: 48 h, read-out: IC50 ± SD, in vitro cytotoxicity H1299. Here is the method:
(§1) Cell lines were grown with routine culture techniques in RPMI 1640 supplemented with 9% foetal bovine serum at 37 °C in 5% CO2.
(§2) Cells were plated in 96-well plates at a density of 5000 cells per well. Twelve hours after seeding, cells were treated with various concentrations of test compounds for 48 h. Cell viability was assessed with the MTS assay (Promega) according to the manufacturer's instruction.
(§3) To determine the efficiency of 3a-3h as antitumour agents, we assessed the in vitro cytotoxicity of 3a-3h using several different tumour cell lines derived from human colon cancer (HCT116), breast cancer (MCF7), cervical cancer (Hela) and lung cancer (H1299) and mouse melanoma (B16). […] This discrepancy may be due to the different properties of these compounds such as cell penetration that is important in the cellular assay.

Another series concerns Hela. Kind of series: MTS cell proliferation assay, Hela. The settings on record: Hela cervical cancer, 48 h, read-out: IC50 ± SD, in vitro cytotoxicity Hela. In kind it is cell-based, human. Here is the method: as §1, §2, §3
The next series has as its system B16. Kind of series: MTS cell proliferation assay, B16. The settings on record: B16 mouse melanoma, 48 h, read-out: IC50 ± SD, in vitro cytotoxicity B16. It counts as cell-based. Here is the method:
as §1, §2, §3

In a further series the test system is MCF7. Kind of series: MTS cell proliferation assay, MCF7. It counts as cell-based, human. As to conditions: MCF7 breast cancer, 48 h, read-out: IC50 ± SD, in vitro cytotoxicity MCF7. How it is done: as §1, §2, §3
In general terms: Tetrazolium dyes change colour on reduction, which living cells bring about.

The next series deals with T1, PKM2 (Homo sapiens, UniProt P14618).
T1 construct: His tag (N); made in house; host or cells: Escherichia coli BL21
Kind of series: PKM2 activity assay (fluorescent pyruvate kinase-lactate dehydrogenase coupled assay). It counts as biochemical. As to conditions: recombinant human PKM2, fluorescent PK-LDH coupled assay; read-out: IC50 ± SD, PKM2 inhibitory activity. Here is the method: Human cDNA for PKM2 was cloned into pET28a^+ with a N-terminal His tag and purified from Escherichia coli strain BL21 (Invitrogen) using Ni-Agarose beads (Qiagen) as described previously.
Pyruvate kinase activity was measured with a fluorescent pyruvate kinase-lactate dehydrogenase coupled assay as previously described.
We first tested the effect of compound 3a-3h on PKM2 activity using a fluorescent PK-LDH coupled assay according to a previously reported method. Shikonin, which is a known inhibitor of PKM2, was used as the positive control. […] The preliminary SAR can be summarised as follows. The amine moiety of target compounds greatly influenced PKM2 inhibitory activity. Introduction of a short chain N, N-dimethylamine reduced the inhibitory activity (3b vs. 3c and 3d). When the n-propyl amine in 3d was replaced by allyl amine (3e), the inhibitory activity was lowered. […] Introduction of a sulphur atom therefore contributed to improvement of PKM2 inhibitory activity.

For another series, the system named is HCT116. Kind of series: MTS cell proliferation assay, HCT116. In kind it is cell-based, human. The settings on record: 48 h, read-out: IC50 ± SD, in vitro cytotoxicity HCT116. How it is done:
as §1, §2, §3

Series [1] relates to HCT116, MCF7, Hela, H1299 and B16 cells. Description: MTS cell proliferation assay, range over the tumour cell panel. In kind it is cell-based. The settings on record: range over the five cell lines, read-out: IC50 values against HCT116, MCF7, Hela, H1299 and B16 cells (range over cell lines). How it is done: as §1, §2, §3
The next series deals with BEAS-2B cells. Kind of series: Cytotoxicity in normal BEAS-2B cells. It counts as cell-based. As to conditions: normal human bronchial epithelial cells. Here is the method: as §1, §2
To further explore the selectivity of target compounds against cancer cells, we tested the cytotoxicity of representative compound 3f in BEAS-2B cells derived from normal human bronchial epithelial cells.

[2] abbreviates: Homo sapiens, NCI-H1299, H1299 lung cancer.
Where [3] appears, read: Homo sapiens, HCT-116, HCT116 colon cancer.

Where two headings read alike, the source gives them in different places.

T1 sequence (P14618 whole entry): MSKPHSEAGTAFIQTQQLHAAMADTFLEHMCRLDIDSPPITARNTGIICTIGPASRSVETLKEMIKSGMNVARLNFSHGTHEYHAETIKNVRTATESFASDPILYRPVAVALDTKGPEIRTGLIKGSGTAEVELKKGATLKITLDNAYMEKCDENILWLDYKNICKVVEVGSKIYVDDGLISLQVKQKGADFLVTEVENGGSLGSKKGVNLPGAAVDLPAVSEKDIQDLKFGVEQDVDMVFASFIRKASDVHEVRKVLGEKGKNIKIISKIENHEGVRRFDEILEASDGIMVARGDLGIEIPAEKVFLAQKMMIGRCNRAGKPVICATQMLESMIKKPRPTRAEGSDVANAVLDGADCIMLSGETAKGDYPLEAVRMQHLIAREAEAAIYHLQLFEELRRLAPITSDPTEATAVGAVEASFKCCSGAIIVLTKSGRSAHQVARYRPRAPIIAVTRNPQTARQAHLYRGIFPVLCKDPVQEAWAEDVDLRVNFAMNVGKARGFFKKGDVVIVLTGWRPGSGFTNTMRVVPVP

Consider `O=C1C(CSC(=S)N2CCOCC2)=C(CSC(=S)N2CCOCC2)C(=O)c2ccccc21` [3a, dimorpholine-dithiocarbamic acid 3-dimorpholinethiocarbamoylsulphanylmethyl-1,4-dioxo-1,4-dihydro-naphthalen-2-ylmethyl ester], for which the IC50 – broadly, the concentration that gives 50% inhibition – worked out at 331 ± 91 nM in the series with H1299 (H1299 lung cancer); 337 ± 54 nM in the series with Hela; 272 ± 10 nM in the series on B16; 340 ± 3 nM in the series on MCF7; 2640 ± 980 nM on PKM2; 214 ± 3 nM in the series on HCT116 (HCT116 colon cancer).

On to `CN(C)C(=S)SCC1=C(CSC(=S)N(C)C)C(=O)c2ccccc2C1=O` [3b, dimethyl-dithiocarbamic acid 3-dimethylthiocarbamoylsulphanylmethyl-1,4-dioxo-1,4-dihydro-naphthalen-2-ylmethyl ester], for which the IC50 in the series on H1299 (setting [2]) was 109 ± 2 nM; with Hela (Homo sapiens), 122 ± 17 nM; with B16, 104 ± 11 nM; in the series with MCF7 (Homo sapiens), 69 ± 9 nM; in series [1], 69 to 122 nM; at PKM2, over 10000 nM. Moreover, the IC50 in the series on HCT116 (setting [3]) came to 88 ± 4 nM.

As to `CCN(CC)C(=S)SCC1=C(CSC(=S)N(CC)CC)C(=O)c2ccccc2C1=O` [3c, diethyl-dithiocarbamic acid 3-diethylthiocarbamoylsulphanylmethyl-1,4-dioxo-1,4-dihydro-naphthalen-2-ylmethyl ester], the melting point (commonly the temperature of the solid-liquid transition) fell in the range of 130 to 131 °C. Further, in the series with H1299 (setting [2]), the IC50 amounted to 144 ± 13 nM. In addition, the IC50 in the series with Hela (Homo sapiens) stood at 251 ± 59 nM. Further, the IC50 in the series on B16 is 108 ± 10 nM. For the same compound, the IC50 with MCF7 (Homo sapiens) was determined as 84 ± 3 nM. In series [1], the IC50 fell in the range of 84 to 251 nM. Moreover, the IC50 on PKM2 is 2780 ± 970 nM. Further, in the series on HCT116 (setting [3]), the concentration for half-maximal inhibition (IC50) was determined as 93 ± 2 nM.

Consider `CCCN(CCC)C(=S)SCC1=C(CSC(=S)N(CCC)CCC)C(=O)c2ccccc2C1=O` [3d, dipropyl-dithiocarbamic acid 3-dipropylthiocarbamoylsulphanylmethyl-1,4-dioxo-1,4-dihydro-naphthalen-2-ylmethyl ester], for which the melting point lay within 111 to 112 °C. For the same compound, the IC50 in the series on H1299 (setting [2]) is 830 ± 162 nM. Moreover, in the series on Hela (Homo sapiens), the IC50 is over 10000 nM. For the same compound, in the series with B16, the IC50 was found to be 787 ± 203 nM. Further, the IC50 with MCF7 (Homo sapiens) is over 10000 nM. In addition, the IC50 on PKM2 worked out at 3080 ± 1230 nM. Also, in the series with HCT116 (setting [3]), the IC50 was 597 ± 14 nM.

Consider `C=CCN(CC=C)C(=S)SCC1=C(CSC(=S)N(CC=C)CC=C)C(=O)c2ccccc2C1=O` [3e, diallyl-dithiocarbamic acid 3-diallylthiocarbamoylsulphanylmethyl-1,4-dioxo-1,4-dihydro-naphthalen-2-ylmethyl ester], for which the IC50 is 1020 ± 111 nM in the series on H1299 (setting [2]); 3460 ± 3190 nM in the series on Hela (Homo sapiens); 709 ± 27 nM in the series with B16; 1090 ± 421 nM in the series on MCF7 (Homo sapiens); over 10000 nM on PKM2; 742 ± 45 nM in the series on HCT116 (setting [3]).

In the case of `O=C1C(CSC(=S)N2CCSCC2)=C(CSC(=S)N2CCSCC2)C(=O)c2ccccc21` [3f, dithiamorpholine-dithiocarbamic acid 3-dithiamorpholinethiocarbamoylsulphanylmethyl-1,4-dioxo-1,4-dihydro-naphthalen-2-ylmethyl ester], the IC50 is 206 ± 18 nM in the series with H1299 (H1299 lung cancer); 412 ± 18 nM with Hela; 189 ± 6 nM with B16; 11500 ± 620 nM with BEAS-2B cells; 194 ± 55 nM with MCF7; 1050 ± 170 nM on PKM2. Also, the IC50 in the series with HCT116 (HCT116 colon cancer) came to 189 ± 35 nM.

As to `O=C1C(CSC(=S)N2CCCC2)=C(CSC(=S)N2CCCC2)C(=O)c2ccccc21` [3g, dipyrrolidine-dithiocarbamic acid 3-dipyrrolidinethiocarbamoylsulphanylmethyl-1,4-dioxo-1,4-dihydro-naphthalen-2-ylmethyl ester], the IC50 in the series with H1299 (H1299 lung cancer) was determined as 247 ± 15 nM; in the series with Hela, 298 ± 53 nM; with B16 it was 159 ± 2 nM; in the series on MCF7, 638 ± 20 nM; at PKM2, 2330 ± 520 nM; in the series on HCT116 (HCT116 colon cancer), 164 ± 3 nM.

As to `O=C1C(CSC(=S)N2CCSC2)=C(CSC(=S)N2CCSC2)C(=O)c2ccccc21` [3h, dithiazolidine-dithiocarbamic acid 3-dithiazolidinethiocarbamoylsulphanylmethyl-1,4-dioxo-1,4-dihydro-naphthalen-2-ylme-thyl ester], the IC50 with H1299 (H1299 lung cancer) is 306 ± 8 nM; in the series with Hela, 1130 ± 80 nM; in the series with B16 it was 317 ± 22 nM; in the series on MCF7, 234 ± 45 nM; at PKM2 it was 960 ± 180 nM; in the series with HCT116 (HCT116 colon cancer) it was 374 ± 15 nM.

With `CC1=C(CSC(=S)N2CCCCC2)C(=O)c2ccccc2C1=O` [3k, reference compound], the IC50 at PKM2 was determined as 2950 ± 530 nM.

As to `CC(C)=CC[C@@H](O)C1=CC(=O)c2c(O)ccc(O)c2C1=O` [Shikonin, reference compound], the IC50 with H1299 (setting [2]) turned out to be 954 ± 186 nM; in the series with Hela (Homo sapiens), 813 ± 81 nM; with B16 it was 1220 ± 155 nM; with MCF7 (Homo sapiens) it was 2400 ± 346 nM; on PKM2, 8820 ± 2620 nM; with HCT116 (setting [3]), 1060 ± 182 nM.

Values taken from paper PMC6010099, “Synthesis and antitumor activity of novel 2, 3-didithiocarbamate substituted naphthoquinones as inhibitors of pyruvate kinase M2 isoform” (Journal of Enzyme Inhibition and Medicinal Chemistry, 2017).
